Earlier results on one substance are cited in EP0385476B2, “Physiologically active polypeptide and DNA” (SHIONOGI & CO., LTD., priority 1989, dated 1999).

The series has as its system chicken rectum. Particulars: relative to ANP.

In the case of “porcine brain natriuretic peptide [pBNP]”, the “rectum relaxation activity, times higher than that of ANP” value is listed as 3 to 4 times.
